These results are taken from US10596223B2, “JNK inhibitor molecules for treatment of various diseases” (Xigen Inflammation Ltd., priority 2011, dated 2020).

Entries after “also recorded” stand apart in the source; their conditions may differ. Square brackets hold non-standard residues; d marks the D form. Peptide text beside a SMILES is read from it.

In assay [1] the test system is Primary Rat Whole Blood Cells. Description: Cytokine release in rat whole blood (LPS or PMA+ionomycin, 4 h). In kind it is cell-based. Conditions: 10 μM inhibitor, three activator concentrations. The method, then:
Given are the results for the control, 1 μM of SEQ ID NO: 172, 3 μM of SEQ ID NO: 172, and 10 μM of SEQ ID NO: 172 at different levels of LPS (ng/ml).
FIG. 17 Dose dependent inhibition of IL-2 release in rat whole blood stimulated with PMA+ionomycin. JNK inhibitor with SEQ ID NO: 172 was added at three different concentrations, namely 1, 3 and 10 μM 1 h before stimulation with PMA+ionomycin. Three doses of activators were added (25/500 ng/mL, 50/750 ng/mL and 50/1000 ng/mL) for 4 h. IL-2 release was assessed in supernatant.
Whole blood is collected from anesthetized rat or human healthy volunteers using a venipuncture connected to a pre-labeled vacuum tube containing sodium citrate. Tubes are gently mixed by inversion 7-8 times; and are then kept at RT until stimulation. JNK inhibitor of SEQ ID NO: 172_is prepared […] concentrated in PBS, and 30 μl/well of mix is added into 96-well plate. Whole blood is diluted by 1:2 in PBS and 120 μl of diluted blood is added in each well where either PBS alone or JNK inhibitor of SEQ ID NO: 172 has been previously added. Whole blood is incubated at 37° C.; 85 rpm (Stuart Orbital incubator S1500) for 60 min. […] Cytokine (IL-6, IL-2, IFNγ and TNFα) were then measured using standard Elisa kits (e.g. from R&D Systems: DuoSet Elisas; or from BD Biosciences: BD Opteia Set Elisa). Results are expressed as pg/ml of supernatant of the measured cytokine. […]

The subject of assay [2] is scopolamine-induced dry eye in mice. Description: Scopolamine-induced model of dry eye (TBUT, PRTT, histopathology). In kind it is in vivo, mouse. Conditions: for histological scores of the cornea compared with cyclosporine group: Day 22. The method, then: The objective of this study was to assess the effects of two different compounds, the all-D-retro-inverso JNK-inhibitor (poly-)peptide of SEQ ID NO: 197 and the JNK inhibitor (poly-)peptide of SEQ ID NO: 172, at three dose levels in a mouse model of scopolamine-induced dry eye.
The peptides of SEQ ID NO: 197 and SEQ ID NO: 172 were tested for efficacy in this murine model of dry eye. The peptides were both tested at a low, medium and a high dose. […] The vehicle, which also served as the negative control, was 0.9% Sodium Chloride for Injection USP.
The study consisted of a total of 9 groups of female C57BL/6 mice, comprising 8 groups of 12 mice each and an additional group of 4 mice. Bilateral short-term dry eye was induced by a combination of scopolamine hydrobromide (Sigma-Aldrich Corp., St. Louis, Mo.) injection (subcutaneous (SC), four times daily, 0.5 mg/dose, Days 0-21) and by exposing mice to the drying environment of constant air draft. […] Mice of Group 9 were maintained as un-induced, (no dry eye) untreated controls.
During the in-life (treatment) period, clinical observations were recorded once daily; slit-lamp examination (SLE) with corneal fluorescein staining, tear break-up time test (TBUT), and phenol red thread test (PRTT) were performed three times per week. Necropsies were performed on Day 22; eyes, eye lids, conjunctivae, and lacrimal glands were collected from both eyes of each animal. Tissues from the right eyes (oculus dexter, OD) were fixed and then evaluated microscopically. Tissues from the left eyes (oculus sinister; OS) were flash-frozen in liquid nitrogen and stored frozen at −80° C. for possible subsequent analyses.
Prior to the start of the study, the (poly-)peptides of SEQ ID NO: 172 and of SEQ ID NO: 197 were formulated in sterile saline (vehicle). Dosing solutions at each concentration were sterilized using 0.2-μm filters, aliquoted to multiple pre-labeled vials, and frozen at −20° C.
Prior to entry into the study, each animal underwent a SLE and indirect ophthalmic examination using topically-applied fluorescein. Ocular findings were recorded using the Draize scale ocular scoring. SLE and Draize scoring were repeated three times a week during the in-life period.
The TBUT test was conducted three times weekly by measuring the time elapsed in seconds between a complete blink after application of fluorescein to the cornea and the appearance of the first random dry spot in the tear film. […] At least ninety seconds later, corneal epithelial damage was graded using a slit-lamp with a cobalt blue filter after another drop of 0.1% fluorescein was reapplied to the cornea; the cornea then was scored per the Draize ocular scale.
Tear production was measured three times a week in both eyes using PRTT test strips (Zone-Quick; Menicon, Nagoya, Japan). Prior to the first treatment of the day, a thread was applied to the lateral canthus of the conjunctival fornix of each eye for 30 seconds under slit-lamp biomicroscopy. Tear migration up the tread (i.e., the length of the wetted cotton thread) was measured using a millimeter scale.
At necropsy on Day 22, both eyes from each animal, including the globes, lacrimal glands, eyelids, and conjunctivae, were excised.

The mark [3] stands for this setting: topical ocular TID, Days 1 to 21.

In the case of `CC(C)C[C@H](NC(=O)[C@H](CC(N)=O)NC(=O)[C@H](CC(C)C)NC(=O)[C@@H](NC(=O)[C@@H](C)NC(=O)[C@@H]1CCCN1C(=O)[C@H](CCCNC(=N)N)NC(=O)[C@@H](CCCCN)NC(=O)[C@@H]1CCCN1C(=O)[C@H](CCCNC(=N)N)NC(=O)[C@@H](CCCNC(=N)N)NC(=O)[C@H](CCCNC(=N)N)NC(=O)[C@H](CCCNC(=N)N)NC(=O)[C@H](CCC(N)=O)NC(=O)[C@@H](CCCNC(=N)N)NC(=O)[C@H](CCCNC(=N)N)NC(=O)[C@H](CCCCN)NC(=O)[C@H](CCCCN)NC(=O)[C@H](N)CCCNC(=N)N)[C@@H](C)O)C(=O)N[C@H](Cc1ccccc1)C(N)=O` [SEQ ID NO: 172, rKKRrQRRrRPkRPaTLNLf] (H-[dR]KKR[dR]QRR[dR]RP[dK]RP[dA]TLNL[dF]-NH2; N-terminus assumed), the “PMA-iono-induced IL-2 release” value in assay [1] is “did efficiently reduce PMA-iono-induced IL-2 release”. Besides, the “histological scores of the cornea compared with cyclosporine group” value in assay [2] (0.2% (mid dose)) is “the most effective, after cyclosporine”. Besides, in assay [2] (0.6% (high dose)), the “histological scores of the cornea compared with cyclosporine group” value was “the most effective, after cyclosporine”. Further, the “TBUT AUC compared with vehicle control (Kruskal-Wallis)” value in assay [2] (Day 7 to Day 21, SEQ ID NO: 172 0.05%, 0.2% and 0.6%, cyclosporine 0.05%) was “significant increases in the TBUT AUC”. In addition, in assay [2] (Day 21, mid and high-dose (0.2%, 0.6%)), the “PRTT in the last test, aqueous tear production” value was “therapeutic effects similar to cyclosporine”. In assay [2] (setting [3]), the “PRTT, production of aqueous tears, low, mid and high dose (in words)” value was “significantly more aqueous tears compared to vehicle-treated animals”; the “TBUT means, low, mid and high dose (in words)” value was “above the vehicle group; also recorded: dose-dependent increase in TBUT”.
